Read-outs that look alike come from different tables or passages of the source.
How the values were obtained:
E. coli 16327 = assay: microbe, parasite or virus in culture; conditions: for Antibiotic MIC: E. coli 16327
E. coli 16329 = assay type: cell-based, Escherichia coli
Procedure: MICs were determined by microdilution susceptibility testing in 96-well plates (by Nunc) using inocula of 10^5 bacteria per ml. Cell populations were evaluated by optical density measurements at 620 nm and were calibrated against a set of standards. Hundred (100) μl of a bacterial suspension were added to 100 μl of culture medium (control) or to 100 μl of culture medium containing various polymer concentrations in 2-fold serial dilutions. Inhibition of proliferation was determined by optical density measurements at 620 nm after an incubation period of 24 hours at 37° C.
100 μl of a bacterial suspension were added to 100 μl of culture medium (control) or to 100 μl of culture medium containing various antibiotic and C14(9-ene)KKNC12KNH2 (SEQ ID NO: 5) concentrations in 2-fold serial dilutions. Inhibition of proliferation was determined by optical density measurements at 620 nm after an incubation period of 24 hours at 37° C.

E. coli 14182 = assay: Antibiotic MIC by microdilution with or without sub-MIC polymer; assay type: cell-based, Escherichia coli
S. maltophila 748 = assay: as above; assay type: cell-based, Stenotrophomonas maltophila
[1] = test system: E. coli K-12 efflux knockout mutant; assay type: cell-based, Escherichia coli; conditions: E. coli AG100A (efflux−)
How it was run: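 Broth microdilution, inocula 10^5 bacteria/ml, 24 h at 37 °C. Growth read as OD620 against calibration standards.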

[2] = test system: E. coli K-12 resistant wild type; assay type: cell-based, Escherichia coli; conditions: E. coli AG100 (w.t.)
[3] = polymer at ¼ of its MIC (Table 16)
[4] = polymer at ½ of its MIC (Table 16)
[5] = polymer at ⅓ of its MIC (Table 16)
[6] = the OAK at ¼ of its MIC (Table 17)
[7] = the OAK at ½ of its MIC (Table 17)
[8] = the OAK at ⅓ of its MIC (Table 17)

## CCN1CCN(C(=O)N[C@@H](C(=O)N[C@@H]2C(=O)N3[C@@H]2SC(C)(C)[C@@H]3C(=O)O)c2ccccc2)C(=O)C1=O [Piperacillin, piperacillin]
E. coli 16327; +½ MIC (3.12 μM) C12K(KNC12K)2NH2
  Antibiotic MIC: 64 µg/mL
E. coli 16327; +⅓ MIC (2.1 μM) C12K(KNC12K)2NH2
  Antibiotic MIC: 256 µg/mL
E. coli 16327; no polymer (None), Table 9
  Antibiotic MIC: 256 µg/mL
E. coli 16327; no polymer (None), Table 10
  Antibiotic MIC: 512 µg/mL
E. coli 16327; no polymer (None), Table 12
  Antibiotic MIC: 256 µg/mL
E. coli 16327; E. coli U-16327, antibiotic alone (Table 15)
  Antibiotic MIC, None: 256 µg/mL
E. coli 16327; E. coli U-16327, polymer at ¼ of its MIC
  Antibiotic MIC in presence of C12K(NC8K)7NH2 (SEQ ID NO: 4), +¼ MIC: 256 µg/mL
E. coli 16327; E. coli U-16327, polymer at ½ of its MIC
  Antibiotic MIC in presence of C12K(NC8K)7NH2 (SEQ ID NO: 4), +½ MIC: 32 to 64 µg/mL
E. coli 16327; E. coli U-16327, polymer at ⅓ of its MIC
  Antibiotic MIC in presence of C12K(NC8K)7NH2 (SEQ ID NO: 4), +⅓ MIC: 128 to 256 µg/mL
E. coli 16329
  Antibiotic MIC: 128 to 256 µg/mL
E. coli 16329; E. coli 16329, no polymer (None), Table 10
  Antibiotic MIC: 256 µg/mL
E. coli 16329; E. coli U-16329, +¼ MIC C12K(NC8K)5NH2
  Antibiotic MIC: 256 µg/mL
E. coli 16329; E. coli U-16329, +½ MIC C12K(NC8K)5NH2
  Antibiotic MIC: 128 µg/mL
E. coli 16329; E. coli U-16329, +⅓ MIC C12K(NC8K)5NH2
  Antibiotic MIC: 128 to 256 µg/mL
E. coli 16329; E. coli U-16329, antibiotic alone (Table 15)
  Antibiotic MIC, None: 256 µg/mL
E. coli 16329; E. coli U-16329, no polymer (None), Table 14
  Antibiotic MIC: 256 µg/mL
E. coli 16329; E. coli U-16329, polymer at ¼ of its MIC
  Antibiotic MIC in presence of C12K(NC8K)7NH2 (SEQ ID NO: 4), +¼ MIC: 128 to 256 µg/mL
E. coli 16329; E. coli U-16329, polymer at ½ of its MIC
  Antibiotic MIC in presence of C12K(NC8K)7NH2 (SEQ ID NO: 4), +½ MIC: 64 to 128 µg/mL
E. coli 16329; E. coli U-16329, polymer at ⅓ of its MIC
  Antibiotic MIC in presence of C12K(NC8K)7NH2 (SEQ ID NO: 4), +⅓ MIC: 128 to 256 µg/mL
E. coli 14182; +¼ MIC C12K(NC8K)5NH2
  Antibiotic MIC: >512 µg/mL
E. coli 14182; +½ MIC C12K(NC8K)5NH2
  Antibiotic MIC: 512 µg/mL
E. coli 14182; +⅓ MIC C12K(NC8K)5NH2
  Antibiotic MIC: >512 µg/mL
E. coli 14182; antibiotic alone (Table 15)
  Antibiotic MIC, None: >512 µg/mL
E. coli 14182; no polymer (None), Table 14
  Antibiotic MIC: >512 µg/mL
E. coli 14182; polymer at ¼ of its MIC
  Antibiotic MIC in presence of C12K(NC8K)7NH2 (SEQ ID NO: 4), +¼ MIC: >512 µg/mL
E. coli 14182; polymer at ½ of its MIC
  Antibiotic MIC in presence of C12K(NC8K)7NH2 (SEQ ID NO: 4), +½ MIC: 64 µg/mL
E. coli 14182; polymer at ⅓ of its MIC
  Antibiotic MIC in presence of C12K(NC8K)7NH2 (SEQ ID NO: 4), +⅓ MIC: >512 µg/mL
S. maltophila 748; +¼ MIC (1.6 μM) C12K(KNC12K)3NH2
  Antibiotic MIC: 32 µg/mL
S. maltophila 748; +½ MIC (3.12 μM) C12K(KNC12K)3NH2
  Antibiotic MIC: 32 µg/mL
S. maltophila 748; +⅓ MIC (2.1 μM) C12K(KNC12K)3NH2
  Antibiotic MIC: 32 µg/mL
S. maltophila 748; no polymer (None), Table 13
  Antibiotic MIC: 32 µg/mL
[1]; antibiotic alone (Table 16)
  Antibiotic MIC, None: <0.13 µg/mL
[1]; antibiotic alone (Table 17)
  Antibiotic MIC, None: <0.13 µg/mL
[1]; [3]
  Antibiotic MIC in presence of C12K(NC8K)7NH2 (SEQ ID NO: 4), +¼ MIC: <0.13 µg/mL
[1]; [4]
  Antibiotic MIC in presence of C12K(NC8K)7NH2 (SEQ ID NO: 4), +½ MIC: <0.13 µg/mL
[1]; [5]
  Antibiotic MIC in presence of C12K(NC8K)7NH2 (SEQ ID NO: 4), +⅓ MIC: <0.13 µg/mL
[1]; [6]
  Antibiotic MIC in presence of the OAK, +¼ MIC: <0.13 µg/mL
[1]; [7]
  Antibiotic MIC in presence of the OAK, +½ MIC: <0.13 µg/mL
[1]; [8]
  Antibiotic MIC in presence of the OAK, +⅓ MIC: <0.13 µg/mL
[2]; antibiotic alone (Table 16)
  Antibiotic MIC, None: 2 µg/mL
[2]; antibiotic alone (Table 17)
  Antibiotic MIC, None: 2 µg/mL
[2]; [3]
  Antibiotic MIC in presence of C12K(NC8K)7NH2 (SEQ ID NO: 4), +¼ MIC: 2 µg/mL
[2]; [4]
  Antibiotic MIC in presence of C12K(NC8K)7NH2 (SEQ ID NO: 4), +½ MIC: 0.5 µg/mL
[2]; [5]
  Antibiotic MIC in presence of C12K(NC8K)7NH2 (SEQ ID NO: 4), +⅓ MIC: 1 µg/mL
[2]; [6]
  Antibiotic MIC in presence of the OAK, +¼ MIC: 1 to 2 µg/mL
[2]; [7]
  Antibiotic MIC in presence of the OAK, +½ MIC: 0.5 µg/mL
[2]; [8]
  Antibiotic MIC in presence of the OAK, +⅓ MIC: 1 µg/mL
